From US20250268906A1, “MOLECULAR GLUE COMPOUND BASED ON CEREBLON PROTEIN DESIGN AND USE THEREOF” (GLUETACS THERAPEUTICS (SHANGHAI) CO., LTD., priority 2022, published 2025) come the findings set out here.

Assay [1] deals with TMD8 cells. The experiment in a line: Tumor cell proliferation inhibition, CCK-8 kit, 96 h. In kind it is cell-based. The conditions noted are these: Homo sapiens; TMD8 cells, 96 h, CCK-8; read-out: IC50 for inhibiting the proliferation of tumor cells, TMD8 cell. The procedure:
(§1) The tumor cells used herein were cultured in RPMI 1640 medium supplemented with 10% FBS, penicillin to a final concentration of 100 U/mL, and streptomycin to a final concentration of 100 μg/mL, at 37° C. in an incubator with 5% CO2. Prior to experimentation, all cells used were correctly identified by STR profiling, and tested negative for Mycoplasma through routine screenings.
(§2) After 24 h, 100 μL of the inoculated cells were treated with 0.5 μL of the compounds of the present disclosure (including the compounds in Table 1, and Examples compounds) in DMSO at 10 different successively decreasing concentrations (starting at a maximum concentration of 10 μM; 5-fold serial dilutions). […] The growth inhibition of the compounds of the present disclosure on the cells was plotted using Prism Graphpad software, and the IC50 values of the compounds of the present disclosure were calculated.
On the technique in general: Tetrazolium assays rely on reduction of a dye to a coloured formazan, in cell work by metabolically active cells.

Assay [2] concerns the target human Cereblon WT GST-tagged protein (Homo sapiens (Human), UniProt Q96SW2). The experiment in a line: CRBN binding, HTRF (CEREBLON BINDING kit). The procedure: The CEREBLON BINDING kits (specification: 10,000 tests; product number: Catalog #64BDCRBNPEH; CISBIO company) was used to determine the CRBN binding ability of the compounds to be tested through a HTRF method (homogeneous time-resolved fluorescence). The specific methods are as follows: • 1. […] Then, 2.5 μL of human Cereblon WT GST-tagged protein solution was added to each well. Finally, 5 μL of the thoroughly mixed Thalidomide-Re reagent and GST Eu antibody working solution were added to each of the aforementioned wells. […] The blank control wells were sequentially added with 2.5 μL of diluent #9 (1×) solution, 2.5 μL of PROTAC binding buffer, and 5 μL of thoroughly mixed Thalidomide-Re reagent and GST Eu antibody working solution. • 4.
The corresponding CRBN binding inhibition rate was calculated using the following method: […]
OD 620 nmcompound is the absorbance value of each well of the compounds of the present disclosure to be tested at an emission wavelength of 620 nm. […] OD 620 nmcontrol is the absorbance value of the blank control well at an emission wavelength of 620 nm. […] OD 620 nmStd0 is the absorbance value of the solvent control well at an emission wavelength of 620 nm.
(In general: In TR-FRET formats the signal depends on donor and acceptor labels being close together.)

In assay [3] the test system is Daudi cells. The experiment in a line: Tumor cell proliferation inhibition, CCK-8 kit, 96 h. The conditions noted are these: Homo sapiens, Daudi cells, CCK-8, read-out: IC50 for inhibiting the proliferation of tumor cells, Daudi cell. In kind it is cell-based. The procedure: as §1, §2
The subject of assay [4] is Mino cells. The description is as above. It is filed as cell-based. The conditions noted are these: Homo sapiens, Mino cells, CCK-8, read-out: IC50 for inhibiting the proliferation of tumor cells, Mino cell. The procedure:
as §1, §2

Assay [5] deals with MM.1S cells. The assay is described as above. It is filed as cell-based. Particulars: Homo sapiens, MM1.S, MM.1S cells, CCK-8, read-out: IC50 for inhibiting the proliferation of tumor cells, MM.1S cell. The procedure:
as §1, §2

Assay [6] concerns the target IKZF1 protein (Homo sapiens (Human), UniProt Q13422+Q96SW2). Put plainly: Western blot, substrate protein degradation in hPBMC. It is filed as cell-based. Particulars: 24 h, Western blot. The text has this: (§3) The supernatant, containing the total cellular protein, was aspirated.
A general note: Immunoblotting shows a protein as a band on a membrane.

The target in assay [7] is IKZF3 protein (Homo sapiens (Human), UniProt Q96SW2+Q9UKT9). The description is as above. It is filed as cell-based. The conditions noted are these: 24 h, Western blot.
Source text: as §3

SMILES strings stand for the structures.

human Cereblon WT GST-tagged protein, sequence (Q96SW2 whole entry): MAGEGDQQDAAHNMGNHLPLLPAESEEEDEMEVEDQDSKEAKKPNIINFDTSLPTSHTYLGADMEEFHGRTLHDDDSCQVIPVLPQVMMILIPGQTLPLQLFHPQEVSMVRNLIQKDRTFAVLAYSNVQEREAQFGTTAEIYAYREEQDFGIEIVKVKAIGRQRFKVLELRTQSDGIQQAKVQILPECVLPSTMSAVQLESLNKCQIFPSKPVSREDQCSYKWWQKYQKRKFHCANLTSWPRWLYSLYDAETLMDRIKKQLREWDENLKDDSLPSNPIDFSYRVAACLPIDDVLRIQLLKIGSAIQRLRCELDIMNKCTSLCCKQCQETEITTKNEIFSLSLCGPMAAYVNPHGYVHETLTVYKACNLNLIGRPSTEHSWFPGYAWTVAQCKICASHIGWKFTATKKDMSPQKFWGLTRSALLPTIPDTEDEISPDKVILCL
IKZF3 protein, sequence (Q9UKT9 whole entry): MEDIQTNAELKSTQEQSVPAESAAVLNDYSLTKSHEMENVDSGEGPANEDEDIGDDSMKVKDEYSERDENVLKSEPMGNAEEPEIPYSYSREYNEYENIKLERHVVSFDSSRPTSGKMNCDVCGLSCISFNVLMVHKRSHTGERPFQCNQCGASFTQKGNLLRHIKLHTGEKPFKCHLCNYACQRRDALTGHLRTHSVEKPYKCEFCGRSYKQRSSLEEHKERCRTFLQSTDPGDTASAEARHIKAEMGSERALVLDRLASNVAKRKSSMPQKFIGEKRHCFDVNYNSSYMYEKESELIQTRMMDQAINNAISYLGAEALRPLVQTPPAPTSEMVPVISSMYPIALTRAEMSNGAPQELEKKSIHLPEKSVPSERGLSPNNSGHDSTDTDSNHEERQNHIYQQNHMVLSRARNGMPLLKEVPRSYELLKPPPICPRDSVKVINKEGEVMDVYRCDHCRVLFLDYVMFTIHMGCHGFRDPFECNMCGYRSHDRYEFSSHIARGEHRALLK
IKZF3 protein, sequence (Q96SW2 whole entry): as the sequence (Q96SW2 whole entry) above
IKZF3 protein, sequence (Q16531 whole entry partner): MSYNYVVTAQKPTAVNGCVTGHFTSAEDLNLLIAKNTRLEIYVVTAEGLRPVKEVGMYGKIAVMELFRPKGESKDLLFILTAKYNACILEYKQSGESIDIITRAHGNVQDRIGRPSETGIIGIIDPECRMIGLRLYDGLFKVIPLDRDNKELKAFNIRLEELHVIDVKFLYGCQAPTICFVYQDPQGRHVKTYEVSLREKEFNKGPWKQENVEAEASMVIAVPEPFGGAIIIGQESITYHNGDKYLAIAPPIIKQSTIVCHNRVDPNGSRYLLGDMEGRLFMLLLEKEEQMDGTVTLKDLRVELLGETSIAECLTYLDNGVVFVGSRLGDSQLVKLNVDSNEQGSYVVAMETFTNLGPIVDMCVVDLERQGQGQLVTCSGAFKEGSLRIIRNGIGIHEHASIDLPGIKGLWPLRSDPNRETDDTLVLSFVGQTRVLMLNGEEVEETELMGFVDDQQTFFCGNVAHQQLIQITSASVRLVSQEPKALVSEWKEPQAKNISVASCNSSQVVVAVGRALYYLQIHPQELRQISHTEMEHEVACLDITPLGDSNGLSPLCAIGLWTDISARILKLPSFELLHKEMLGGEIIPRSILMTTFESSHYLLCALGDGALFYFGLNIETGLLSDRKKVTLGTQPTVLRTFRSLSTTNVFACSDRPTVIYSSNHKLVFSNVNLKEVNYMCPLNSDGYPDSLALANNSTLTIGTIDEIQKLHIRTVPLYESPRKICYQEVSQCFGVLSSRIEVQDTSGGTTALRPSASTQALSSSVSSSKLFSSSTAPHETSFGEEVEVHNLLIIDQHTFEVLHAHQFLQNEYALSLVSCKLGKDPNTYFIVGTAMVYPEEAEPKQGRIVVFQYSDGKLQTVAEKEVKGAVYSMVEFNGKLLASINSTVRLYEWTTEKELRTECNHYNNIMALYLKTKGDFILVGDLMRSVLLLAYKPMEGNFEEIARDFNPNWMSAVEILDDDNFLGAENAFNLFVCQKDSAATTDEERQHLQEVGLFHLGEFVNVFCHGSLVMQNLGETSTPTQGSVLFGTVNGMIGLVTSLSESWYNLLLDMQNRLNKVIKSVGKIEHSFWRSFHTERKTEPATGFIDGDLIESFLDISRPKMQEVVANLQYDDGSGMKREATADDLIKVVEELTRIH
IKZF1 protein, sequence (Q13422 whole entry): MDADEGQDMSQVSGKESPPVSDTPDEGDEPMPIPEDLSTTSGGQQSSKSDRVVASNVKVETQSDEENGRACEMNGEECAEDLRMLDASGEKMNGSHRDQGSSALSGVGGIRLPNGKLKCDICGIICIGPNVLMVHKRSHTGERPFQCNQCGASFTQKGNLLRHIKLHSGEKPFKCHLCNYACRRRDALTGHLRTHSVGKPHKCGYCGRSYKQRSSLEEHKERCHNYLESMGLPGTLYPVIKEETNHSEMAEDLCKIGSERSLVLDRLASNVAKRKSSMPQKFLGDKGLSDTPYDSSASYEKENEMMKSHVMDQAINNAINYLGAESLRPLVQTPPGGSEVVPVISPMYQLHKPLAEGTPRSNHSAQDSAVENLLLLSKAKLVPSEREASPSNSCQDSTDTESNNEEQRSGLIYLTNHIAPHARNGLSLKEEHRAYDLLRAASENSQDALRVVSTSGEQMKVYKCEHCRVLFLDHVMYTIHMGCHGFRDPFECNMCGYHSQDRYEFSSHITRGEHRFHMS
IKZF1 protein, sequence (Q96SW2 whole entry): as the sequence (Q96SW2 whole entry) above
IKZF1 protein, sequence (Q16531 whole entry partner): as the sequence (Q16531 whole entry partner) above

In the case of `O=C1CCC(N2Cc3c(SCc4ccc(CN5CCC(F)(F)CC5)cc4)cc(F)cc3C2=O)C(=O)N1` (centres unmarked) [GT-04024, 3-(4-((4-((4,4-difluoropiperidin-1-yl)methyl)benzyl)thio)-6-fluoro-1-oxoisoindolin-2-yl)piperidine-2,6-dione], the IC50 was 5 to 10 nM in assay [1] and < 600 nM in assay [2].

`O=C1CCC(N2Cc3c(SCc4ccc(CN5CCCCC5)cc4)cc(F)cc3C2=O)C(=O)N1` (centres unmarked) [GT-04117, 3-(6-fluoro-1-oxo-4-((4-(piperidin-1-ylmethyl)benzyl)thio)isoindolin-2-yl)piperidine-2,6-dione]: the IC50 in assay [3] is 500 to 1000 nM; in assay [4], < 5 nM; in assay [1] it was 10 to 50 nM; in assay [2] it was < 600 nM.

Consider `O=C1CCC(N2Cc3c(SCCCCNC45CC6CC(CC(C6)C4)C5)cc(F)cc3C2=O)C(=O)N1` (centres unmarked) [GT-04243, 3-(4-((4-((adamantan-1-yl)amino)butyl)thio)-6-fluoro-1-oxoisoindolin-2-yl)piperidine-2,6-dione], for which the IC50 in assay [2] is < 600 nM.

As to `O=C1CCC(N2Cc3c(SCCCCCCCNC45CC6CC(CC(C6)C4)C5)cc(F)cc3C2=O)C(=O)N1` (centres unmarked) [GT-04333, 3-(4-((7-((adamantan-1-yl)amino)heptyl)thio)-6-fluoro-1-oxoisoindolin-2-yl)piperidine-2,6-dione], the IC50 in assay [2] is < 600 nM.

Regarding `O=C1CCC(N2Cc3c(SCCCCCCCCN4CCOCC4)cc(F)cc3C2=O)C(=O)N1` (centres unmarked) [GT-05341, 3-(6-fluoro-4-((8-morpholinooctyl)thio)-1-oxoisoindolin-2-yl)piperidine-2,6-dione], in assay [2], the IC50 is < 600 nM.

As for `CCN(CC)CCCCCCCCSc1cc(F)cc2c1CN(C1CCC(=O)NC1=O)C2=O` (centres unmarked) [GT-05342, 3-(4-((8-(diethylamino)octyl)thio)-6-fluoro-1-oxoisoindolin-2-yl)piperidine-2,6-dione], in assay [2], the IC50 was < 600 nM.

Consider `O=C1CCC(N2Cc3c(SCCCCCCC(=O)N4CCCCC4)cc(F)cc3C2=O)C(=O)N1` (centres unmarked) [GT-05343, 3-(6-fluoro-1-oxo-4-((7-oxo-7-(piperidin-1-yl)heptyl)thio)isoindolin-2-yl)piperidine-2,6-dione], for which the IC50 in assay [4] is 10 to 50 nM; in assay [2], < 600 nM.

Take `O=C1CCC(N2Cc3c(SCCCCCCCN4CCCCC4)cc(F)cc3C2=O)C(=O)N1` (centres unmarked) [GT-05344, 3-(6-fluoro-1-oxo-4-((7-(piperidin-1-yl)heptyl)thio)isoindolin-2-yl)piperidine-2,6-dione]: the IC50 in assay [2] is < 600 nM.

Take `O=C1CCC(N2Cc3c(SCCCCCCC(=O)N4CCC(F)(F)CC4)cc(F)cc3C2=O)C(=O)N1` (centres unmarked) [GT-05407, 3-(4-((7-(4,4-difluoropiperidin-1-yl)-7-oxoheptyl)thio)-6-fluoro-1-oxoisoindolin-2-yl)piperidine-2,6-dione]: the figures for the IC50 in assay [5], in assay [4] and in assay [2] were 50 to 100 nM, 10 to 50 nM and < 600 nM, respectively.

For `O=C1CCC(N2Cc3c(SCCCCCCCN4CCC(F)(F)CC4)cc(F)cc3C2=O)C(=O)N1` (centres unmarked) [GT-05408, 3-(4-((7-(4,4-difluoropiperidin-1-yl)heptyl)thio)-6-fluoro-1-oxoisoindolin-2-yl)piperidine-2,6-dione], the IC50 in assay [4] was 50 to 100 nM; in assay [2], < 600 nM.

With `O=C1CCC(N2Cc3c(SCCCCCCCNC4CCCCC4)cc(F)cc3C2=O)C(=O)N1` (centres unmarked) [GT-05409, 3-(4-((7-(cyclohexylamino)heptyl)thio)-6-fluoro-1-oxoisoindolin-2-yl)piperidine-2,6-dione], the IC50 was < 5 nM in assay [4] and < 600 nM in assay [2].

Consider `CN(CCCCCCCSc1cc(F)cc2c1CN(C1CCC(=O)NC1=O)C2=O)C12CC3CC(CC(C3)C1)C2` (centres unmarked) [GT-05421, 3-(4-((7-((adamantan-1-yl)(methyl)amino)heptyl)thio)-6-fluoro-1-oxoisoindolin-2-yl)piperidine-2,6-dione], for which the figures for the IC50 in assay [5], in assay [4] and in assay [2] were < 5 nM, < 5 nM and < 600 nM, respectively.

For the compound `O=C1CCC(N2Cc3c(SCCCCCCCNC4CC5(CCC5)C4)cc(F)cc3C2=O)C(=O)N1` (centres unmarked) [GT-05422, 3-(6-fluoro-1-oxo-4-((7-(spiro[3.3]heptan-2-ylamino)heptyl)thio)isoindolin-2-yl)piperidine-2,6-dione], the IC50 is < 5 nM in assay [5], < 5 nM in assay [4] and < 600 nM in assay [2].

As to `O=C1CCC(N2Cc3c(SCc4ccc(CNC56CC7CC(CC(C7)C5)C6)cc4)cc(F)cc3C2=O)C(=O)N1` (centres unmarked) [GT-05423, 3-(4-((4-(((adamantan-1-yl)amino)methyl)benzyl)thio)-6-fluoro-1-oxoisoindolin-2-yl)piperidine-2,6-dione], the results for the IC50 in assay [5], in assay [4] and in assay [2] were < 5 nM, < 5 nM and < 600 nM, respectively.

On to `CC1(C)[C@@H]2CC[C@@]1(C)[C@@H](NCc1ccc(CSc3cc(F)cc4c3CN(C3CCC(=O)NC3=O)C4=O)cc1)C2` (stereo partly drawn) [GT-05424, 3-(6-fluoro-1-oxo-4-((4-((((1R,2S,4R)-1,7,7-trimethylbicyclo[2.2.1]heptan-2-yl)amino)methyl)benzyl)thio)isoindolin-2-yl)piperidine-2,6-dione], for which the IC50 was 10 to 50 nM in assay [5], 100 to 500 nM in assay [3], < 5 nM in assay [4] and < 600 nM in assay [2].

In the case of `CC1(C)[C@@H]2CC[C@@]1(C)[C@@H](NCCCCCCCSc1cc(F)cc3c1CN(C1CCC(=O)NC1=O)C3=O)C2` (stereo partly drawn) [GT-05425, 3-(6-fluoro-1-oxo-4-((7-(((1R,2S,4R)-1,7,7-trimethylbicyclo[2.2.1]heptan-2-yl)amino)heptyl)thio)isoindolin-2-yl)piperidine-2,6-dione], the IC50 was 50 to 100 nM in assay [5], 500 to 1000 nM in assay [3], < 5 nM in assay [4] and < 600 nM in assay [2].

Regarding `O=C1CCC(N2Cc3c(SCc4ccc(CCNC56CC7CC(CC(C7)C5)C6)cc4)cc(F)cc3C2=O)C(=O)N1` (centres unmarked) [GT-05431, 3-(4-((4-(2-((adamantan-1-yl)amino)ethyl)benzyl)thio)-6-fluoro-1-oxoisoindolin-2-yl)piperidine-2,6-dione], the IC50 was < 5 nM in assay [5], < 5 nM in assay [3], < 5 nM in assay [4] and < 600 nM in assay [2].

As to `O=C1CCC(N2Cc3c(SCc4ccc(CN5CCCCC5)c(F)c4)cc(F)cc3C2=O)C(=O)N1` (centres unmarked) [GT-05443, 3-(6-fluoro-4-((3-fluoro-4-(piperidin-1-ylmethyl)benzyl)thio)-1-oxoisoindolin-2-yl)piperidine-2,6-dione], the IC50 in assay [5] is 10 to 50 nM; in assay [3], 100 to 500 nM; in assay [4], < 5 nM; in assay [2] it was < 600 nM. Also, the “concentration at which IKZF1 protein is significantly degraded” value in assay [6] is on record as “below 0.1 nM”. Further, the “concentration at which IKZF3 protein is significantly degraded” value in assay [7] is recorded as “below 10 nM”.

As for `O=C1CCC(N2Cc3c(SCc4ccc(CN5CCC(F)(F)CC5)c(F)c4)cc(F)cc3C2=O)C(=O)N1` (centres unmarked) [GT-05444, 3-(4-((4-((4,4-difluoropiperidin-1-yl)methyl)-3-fluorobenzyl)thio)-6-fluoro-1-oxoisoindolin-2-yl)piperidine-2,6-dione], the IC50 in assay [5] is < 5 nM; in assay [3] it was 10 to 50 nM; in assay [4], < 5 nM; in assay [2], < 600 nM.

In the case of `O=C1CCC(N2Cc3c(CCCCCCCCNC45CC6CC(CC(C6)C4)C5)cc(F)cc3C2=O)C(=O)N1` (centres unmarked) [GT-05617, 3-(4-(8-((adamantan-1-yl)amino)octyl)-6-fluoro-1-oxoisoindolin-2-yl)piperidine-2,6-dione], the IC50 was 50 to 100 nM in assay [4] and < 600 nM in assay [2].
